This note sets out measurements from article PMC9990147 (Nature, 2021).

One experiment concerns the target T1, human PCFT (SLC46A1) (Homo sapiens, UniProt Q96NT5).
T1 sequence (Q96NT5 1-459): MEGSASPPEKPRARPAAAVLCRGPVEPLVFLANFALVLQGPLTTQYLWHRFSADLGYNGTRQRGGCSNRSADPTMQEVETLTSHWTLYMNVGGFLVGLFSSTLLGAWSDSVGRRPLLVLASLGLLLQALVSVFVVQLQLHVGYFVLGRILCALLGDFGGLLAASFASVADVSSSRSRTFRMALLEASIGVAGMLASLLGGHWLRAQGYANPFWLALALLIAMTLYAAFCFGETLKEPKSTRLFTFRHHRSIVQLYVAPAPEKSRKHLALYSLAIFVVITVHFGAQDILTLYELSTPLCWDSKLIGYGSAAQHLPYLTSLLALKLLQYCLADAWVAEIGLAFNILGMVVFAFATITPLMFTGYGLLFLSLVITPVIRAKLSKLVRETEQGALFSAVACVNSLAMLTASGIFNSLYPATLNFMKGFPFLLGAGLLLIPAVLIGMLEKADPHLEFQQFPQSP
Kind of experiment: cell-based 3H-folic acid uptake at pH […] and […].

The target in experiment [1] is T2, PCFT (proton-coupled folate transporter, SLC46A1) (Gallus gallus, UniProt F1NJ67).
T2 sequence (F1NJ67 1-473): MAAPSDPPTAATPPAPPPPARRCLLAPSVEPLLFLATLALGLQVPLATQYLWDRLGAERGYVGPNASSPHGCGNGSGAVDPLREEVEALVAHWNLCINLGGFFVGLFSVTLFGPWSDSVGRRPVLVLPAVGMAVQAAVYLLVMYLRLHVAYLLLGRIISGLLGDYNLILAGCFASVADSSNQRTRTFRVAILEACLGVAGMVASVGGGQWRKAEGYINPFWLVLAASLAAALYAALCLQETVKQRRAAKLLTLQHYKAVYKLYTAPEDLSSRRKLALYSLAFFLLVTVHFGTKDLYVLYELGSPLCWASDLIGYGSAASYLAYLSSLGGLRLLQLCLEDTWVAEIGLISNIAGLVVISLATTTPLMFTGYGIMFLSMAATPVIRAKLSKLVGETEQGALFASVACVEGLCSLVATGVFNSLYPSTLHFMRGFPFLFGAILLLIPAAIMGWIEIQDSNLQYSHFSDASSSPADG
Kind of experiment: cryo-EM structure at […] Å. It counts as cell-based.

For experiment [2], the target named is T3, biotinylated chicken PCFT with C-terminal Avi-tag (Gallus gallus (UniProt E6Y8U5 sequence), biotin on the C-terminal Avi-tag).
T3 chain: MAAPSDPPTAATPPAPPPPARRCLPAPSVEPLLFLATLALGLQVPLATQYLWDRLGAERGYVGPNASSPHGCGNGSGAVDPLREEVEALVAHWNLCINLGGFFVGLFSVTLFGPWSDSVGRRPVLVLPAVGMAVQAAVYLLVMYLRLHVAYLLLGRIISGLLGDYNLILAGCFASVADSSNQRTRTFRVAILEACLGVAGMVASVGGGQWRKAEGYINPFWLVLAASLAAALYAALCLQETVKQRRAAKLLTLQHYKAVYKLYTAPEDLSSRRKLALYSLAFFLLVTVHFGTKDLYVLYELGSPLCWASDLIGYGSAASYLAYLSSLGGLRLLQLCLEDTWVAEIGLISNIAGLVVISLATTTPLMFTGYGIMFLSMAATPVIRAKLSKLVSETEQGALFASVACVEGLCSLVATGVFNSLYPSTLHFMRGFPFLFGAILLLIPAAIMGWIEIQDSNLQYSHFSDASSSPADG
Kind of experiment: BLI. On the technique in general: BLI is a label-free optical method that tracks binding on a fibre tip over time.

As for `Nc1nc(=O)c2nc(CNc3ccc(C(=O)N[C@@H](CCC(=O)O)C(=O)O)cc3)cnc2[nH]1` [FA, folic acid], the “cell-based 3H-folic acid uptake at pH 5.5 and 7.5” value at human PCFT (SLC46A1) was “The human and chicken homologues transport similar amounts of folic acid to each other and do so only at acidic pH”. As usually defined, the IC50 is the concentration at which inhibition is half-maximal. As for `Nc1nc2[nH]cc(CCc3ccc(C(=O)N[C@@H](CCC(=O)O)C(=O)O)cc3)c2c(=O)[nH]1` [PMX, pemetrexed], in experiment [1], the midpoint of inhibition, the IC50, lay at 900 nM.

B1: PCFT nanobody (high-affinity inhibitory nanobody from a naive llama library) (VHH)
VHH: QVQLVESGGGLVQPGGSLRLSCAASGFTFSRYWMYWVRQAPGKGPEWLSHMNPSGSDIKYTDSVKGRFTISRDNAKNTLYLQMNSLKPDDTAVYYCVADRRALGSPEYWGQGTQVTVSS
Usually Kd stands for the constant that tells how readily two partners part at equilibrium. Turning to B1, in experiment [2], the affinity, expressed as Kd, was 8 nM. In other words, the single-digit nanomolar range.
